SMILES strings stand for the structures.

The values that follow come from US8574563B2 (Bristol-Myers Squibb Company, priority 2006, dated 2013).

The first test concerns HCV 1b-377-neo replicon cells. Briefly: HCV replicon assay, HCV 1b-377-neo replicon cells (1b FRET). It is filed as cell-based, Hepatitis C virus genotype 1b. To be noted: HCV 1b-377-neo replicon cells; HCV 1b genotype; read-out: EC50 range against HCV 1b (Table 2, Range). The method, boiled down: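 Compounds were tested in genotype 1b subgenomic replicon cells carrying a neomycin marker, alongside a matched replicon line with an NS5A Y2065H substitution that confers resistance to a reference NS5A inhibitor.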
On the technique in general: In antiviral work, replicon cells carry a viral genome segment that copies itself.
Usually EC50 stands for the midpoint of the concentration-response curve. `CCN(CC)[C@@H](C(=O)N1CCC[C@H]1c1ncc(-c2ccc(-c3ccc(-c4cnc([C@@H]5CCCN5C(=O)C5(NC(=O)OC)CCC5)[nH]4)cc3)cc2)[nH]1)c1ccccc1` [Example M41, methyl (1-(((2S)-2-(5-(4′-(2-((2S)-1-((2R)-2-(diethylamino)-2-phenylacetyl)-2-pyrrolidinyl)-1H-imidazol-5-yl)-4-biphenylyl)-1H-imidazol-2-yl)-1-pyrrolidinyl)carbonyl)cyclobutyl) carbamate]: the EC50 lay in the range of 1 to 99 nM.

The test is the same for the next values; noted with them: Hepatitis C virus, HCV 1b-377-neo replicon cells; HCV 1b genotype; read-out: EC50 range against HCV 1b (Table 2, Range).
In the case of `CCN(CC)[C@@H](C(=O)N1CCC[C@H]1c1ncc(-c2ccc(-c3ccc(-c4nc([C@@H]5CCCN5C(=O)[C@@H](c5ccccc5)N(CC)CC)[nH]c4C)cc3)cc2)[nH]1)c1ccccc1` [Example E5a, (1R)-2-((2S)-2-(4-(4′-(2-((2S)-1-((2R)-2-(diethylamino)-2-phenylacetyl)-2-pyrrolidinyl)-1H-imidazol-4-yl)-4-biphenylyl)-5-methyl-1H-imidazol-2-yl)-1-pyrrolidinyl)-N,N-diethyl-2-oxo-1-phenylethanamine], the EC50 was in the range of 0.001 to 0.999 nM.

In the case of `CCN(CC)[C@@H](C(=O)N1CCC[C@H]1c1ncc(-c2ccc(-c3ccc(-c4cnc([C@@H]5CCCN5C(=O)[C@H](NC(=O)OC)c5ccccc5)[nH]4)c(F)c3)cc2F)[nH]1)c1ccccc1` [Example D64, methyl ((1R)-2-((2S)-2-(5-(4′-(2-((2S)-1-((2R)-2-(diethylamino)-2-phenylacetyl)-2-pyrrolidinyl)-1H-imidazol-5-yl)-3,3′-difluoro-4-biphenylyl)-1H-imidazol-2-yl)-1-pyrrolidinyl)-2-oxo-1-phenylethyl)carbamate], the half-maximal effective concentration (EC50) is 0.001 to 0.999 nM. As to `CCCN(CCC)[C@@H](C)C(=O)N1CCC[C@H]1c1ncc(-c2ccc(-c3ccc(-c4cnc([C@@H]5CCCN5C(=O)[C@@H](NC(=O)OC)C(C)C)[nH]4)cc3)cc2)[nH]1` [Example M84, methyl ((1S)-1-(((2S)-2-(5-(4′-(2-((2S)-1-(N,N-dipropyl-L-alanyl)-2-pyrrolidinyl)-1H-imidazol-5-yl)-4-biphenylyl)-1H-imidazol-2-yl)-1-pyrrolidinyl)carbonyl)-2-methylpropyl)carbamate], the concentration giving a half-maximal response (EC50) is 1 to 99 nM. With `C=CC[C@H](NC(=O)OC)C(=O)N1CCC[C@H]1c1ncc(-c2ccc(-c3ccc(-c4cnc([C@@H]5CCCN5C(=O)[C@@H](NC(=O)OC)C(C)C)[nH]4)cc3)cc2)[nH]1` [Example M76, methyl ((1S)-1-(((2S)-2-(5-(4′-(2-((2S)-1-((2S)-2-((methoxycarbonyl)amino)-3-methylbutanoyl)-2-pyrrolidinyl)-1H-imidazol-5-yl)-4-biphenylyl)-1H-imidazol-2-yl)-1-pyrrolidinyl)carbonyl)-3-buten-1-yl)carbamate], the EC50 fell in the range of 1 to 99 nM. On to `CN(C)[C@@H](C(=O)N1CCC[C@H]1c1ncc(-c2ccc(-c3ccc(-c4cnc([C@@H]5CCCN5C(=O)[C@H]5CC[C@@H](NC(=O)OC(C)(C)C)CC5)[nH]4)cc3)cc2)[nH]1)c1ccccc1` [Example 94-33, tert-butyl (cis-4-(((2S)-2-(5-(4′-(2-((2S)-1-((2R)-2-(dimethylamino)-2-phenylacetyl)-2-pyrrolidinyl)-1H-imidazol-5-yl)-4-biphenylyl)-1H-imidazol-2-yl)-1-pyrrolidinyl)carbonyl)cyclohexyl)carbamate], for which the EC50 lay in the range of 1 to 99 nM. On to `CCN(CC)[C@@H](C(=O)N1CCC[C@H]1c1ncc(-c2ccc(-c3ccc(-c4cnc([C@@H]5CCCN5C(=O)[C@H](Cc5c[nH]nn5)NC(=O)OC)[nH]4)cc3)cc2)[nH]1)c1ccccc1` [cj-32, methyl ((1S)-2-((2S)-2-(5-(4′-(2-((2S)-1-((2R)-2-(diethylamino)-2-phenylacetyl)-2-pyrrolidinyl)-1H-imidazol-5-yl)-4-biphenylyl)-1H-imidazol-2-yl)-1-pyrrolidinyl)-2-oxo-1-(1H-1,2,3-triazol-4-ylmethyl)ethyl)carbamate], for which the EC50 is 0.001 to 0.999 nM.

Regarding `COC(=O)N[C@@H](C(=O)N1CCC[C@H]1c1ncc(-c2ccc(-c3ccc(-c4cnc([C@@H]5CCCN5C(=O)c5cnc[nH]5)[nH]4)cc3)cc2)[nH]1)c1ccccc1` [Example M65, methyl ((1R)-2-((2S)-2-(5-(4′-(2-((2S)-1-(1H-imidazol-5-ylcarbonyl)-2-pyrrolidinyl)-1H-imidazol-5-yl)-4-biphenylyl)-1H-imidazol-2-yl)-1-pyrrolidinyl)-2-oxo-1-phenylethyl)carbamate], the EC50 lay within 1 to 99 nM. On the same count and under the same terms, next, `CCN(CC)[C@@H](C(=O)N1CCC[C@H]1c1ncc(-c2ccc(-c3ccc(-c4cnc([C@@H]5CCCN5C(=O)C[C@H](C)NC(=O)OC)[nH]4)cc3)cc2)[nH]1)c1ccccc1` [cj-51, methyl ((1S)-3-((2S)-2-(5-(4′-(2-((2S)-1-((2R)-2-(diethylamino)-2-phenylacetyl)-2-pyrrolidinyl)-1H-imidazol-5-yl)-4-biphenylyl)-1H-imidazol-2-yl)-1-pyrrolidinyl)-1-methyl-3-oxopropyl)carbamate]: 0.001 to 0.999 nM; `COC(=O)N[C@H](C(=O)N1CCC[C@H]1c1nc(-c2ccc(-c3ccc(-c4c[nH]c([C@@H]5CCCN5C(=O)[C@@H](C)NC5CCOCC5)n4)cc3)cc2)c[nH]1)C(C)C` [Example F53, methyl ((1S)-2-methyl-1-(((2S)-2-(4-(4′-(2-((2S)-1-(N-(tetrahydro-2H-pyran-4-yl)-D-alanyl)-2-pyrrolidinyl)-1H-imidazol-4-yl)-4-biphenylyl)-1H-imidazol-2-yl)-1-pyrrolidinyl)carbonyl)propyl)carbamate]: 0.001 to 0.999 nM; `COC(=O)N[C@@H](C(=O)N1CCC[C@H]1c1ncc(-c2ccc(-c3ccc(-c4cnc([C@@H]5CCCN5C(=O)[C@@](OC)(c5ccccc5)C(F)(F)F)[nH]4)cc3)cc2)[nH]1)c1ccccc1` [Example 84-81, methyl ((1R)-2-oxo-1-phenyl-2-((2S)-2-(5-(4′-(2-((2S)-1-((2S)-3,3,3-trifluoro-2-methoxy-2-phenylpropanoyl)-2-pyrrolidinyl)-1H-imidazol-5-yl)-4-biphenylyl)-1H-imidazol-2-yl)-1-pyrrolidinyl)ethyl)carbamate]: 0.001 to 0.999 nM. Same read-out and setting: next, `COC(=O)N[C@@H](C(=O)N1CCC[C@H]1c1ncc(-c2ccc(-c3ccc(-c4cnc([C@@H]5CCCN5C(=O)[C@H]5CCCN5C)[nH]4)cc3)cc2)[nH]1)c1ccccc1` [Example 51, methyl ((1R)-2-((2S)-2-(5-(4′-(2-((2S)-1-(1-methyl-D-prolyl)-2-pyrrolidinyl)-1H-imidazol-5-yl)-4-biphenylyl)-1H-imidazol-2-yl)-1-pyrrolidinyl)-2-oxo-1-phenylethyl)carbamate]: 0.001 to 0.999 nM; `CCN(CC)[C@@H](C(=O)N1CCC[C@H]1c1ncc(-c2ccc(-c3ccc(-c4cnc([C@@H]5CCCN5C(=O)[C@H](Cn5cccn5)NC(=O)OC)[nH]4)cc3)cc2)[nH]1)c1ccccc1` [cj-36, methyl ((1S)-2-((2S)-2-(5-(4′-(2-((2S)-1-((2R)-2-(diethylamino)-2-phenylacetyl)-2-pyrrolidinyl)-1H-imidazol-5-yl)-4-biphenylyl)-1H-imidazol-2-yl)-1-pyrrolidinyl)-2-oxo-1-(1H-pyrazol-1-ylmethyl)ethyl)carbamate]: 0.001 to 0.999 nM. For `CCNC(=O)N[C@@H](C(=O)N1C[C@H](O)C[C@H]1c1ncc(-c2ccc(-c3ccc(-c4cnc([C@@H]5C[C@@H](O)CN5C(=O)[C@H](NC(=O)NCC)c5ccccc5)[nH]4)cc3)cc2)[nH]1)c1ccccc1` [Example 24-14, N′,N′′′-(4,4′-biphenyldiylbis(1H-imidazole-5,2-diyl((2S,4R)-4-hydroxy-2,1-pyrrolidinediyl)((1R)-2-oxo-1-phenyl-2,1-ethanediyl)))bis(1-ethylurea)], the EC50 was in the range of 1 to 99 nM. Same read-out and setting: as for `COC(=O)N[C@@H](C(=O)N1CCC[C@H]1c1ncc(-c2ccc(-c3ccc(-c4[nH]c([C@@H]5CCCN5C(=O)[C@H](NC(=O)OC)c5ccccc5)nc4C(=O)OC)cc3)cc2)[nH]1)c1ccccc1` [Example J16, methyl 2-((2S)-l-((2R)-2-((methoxycarbonyl)amino)-2-phenylacetyl)-2-pyrrolidinyl)-5-(4′-(2-((2S)-1-((2R)-2-((methoxycarbonyl)amino)-2-phenylacetyl)-2-pyrrolidinyl)-1H-imidazol-5-yl)-4-biphenylyl)-1H-imidazole-4-carboxylate], the figure is 0.001 to 0.999 nM. For `O=C(N1CCC[C@H]1c1ncc(-c2ccc(-c3ccc(-c4cnc([C@@H]5CCCN5C(=O)C5(O)CC5)[nH]4)cc3)cc2)[nH]1)C1(O)CC1` [Example 24, 1,1′-(4,4′-biphenyldiylbis(1H-imidazole-5,2-diyl(2S)-2,1-pyrrolidinediylcarbonyl))dicyclopropanol], the EC50 fell in the range of 1 to 99 nM.

`O=C(N[C@@H](C(=O)N1CCC[C@H]1c1ncc(-c2ccc(-c3ccc(-c4cnc([C@@H]5CCCN5C(=O)[C@H](NC(=O)N5CCOCC5)c5ccccc5)[nH]4)cc3)cc2)[nH]1)c1ccccc1)N1CCOCC1` [Example 25-6, N,N′-(4,4′-biphenyldiylbis(1H-imidazole-5,2-diyl(2S)-2,1-pyrrolidinediyl((1R)-2-oxo-1-phenyl-2,1-ethanediyl)))di(4-morpholinecarboxamide)]: the EC50 was in the range of 1 to 99 nM.

Turning to `CCN(CC)[C@H]1CC[C@@H](C(=O)N2CCC[C@H]2c2ncc(-c3ccc(-c4ccc(-c5cnc([C@@H]6CCCN6C(=O)[C@H]6CCCC[C@H]6NC(=O)OC)[nH]5)cc4)cc3)[nH]2)CC1` [cj-97, methyl ((1R,2S)-2-(((2S)-2-(5-(4′-(2-((2S)-1-((cis-4-(diethylamino)cyclohexyl)carbonyl)-2-pyrrolidinyl)-1H-imidazol-5-yl)-4-biphenylyl)-1H-imidazol-2-yl)-1-pyrrolidinyl)carbonyl)cyclohexyl)carbamate], the EC50 lay within 0.001 to 0.999 nM.
